Among the data in patent US11629143B2, “HipK4 inhibitors and uses thereof” (Vibliome Therapeutics, LLC, priority 2020, dated 2023) are inhibition values, retold here.

Common to all, as to experiment: Kinase panel (mobility shift)
What all share (format): biochemical

Assay [1] has as its target T1, DDR2 (Homo sapiens, UniProt Q16832).
T1 sequence (Q16832 22-855): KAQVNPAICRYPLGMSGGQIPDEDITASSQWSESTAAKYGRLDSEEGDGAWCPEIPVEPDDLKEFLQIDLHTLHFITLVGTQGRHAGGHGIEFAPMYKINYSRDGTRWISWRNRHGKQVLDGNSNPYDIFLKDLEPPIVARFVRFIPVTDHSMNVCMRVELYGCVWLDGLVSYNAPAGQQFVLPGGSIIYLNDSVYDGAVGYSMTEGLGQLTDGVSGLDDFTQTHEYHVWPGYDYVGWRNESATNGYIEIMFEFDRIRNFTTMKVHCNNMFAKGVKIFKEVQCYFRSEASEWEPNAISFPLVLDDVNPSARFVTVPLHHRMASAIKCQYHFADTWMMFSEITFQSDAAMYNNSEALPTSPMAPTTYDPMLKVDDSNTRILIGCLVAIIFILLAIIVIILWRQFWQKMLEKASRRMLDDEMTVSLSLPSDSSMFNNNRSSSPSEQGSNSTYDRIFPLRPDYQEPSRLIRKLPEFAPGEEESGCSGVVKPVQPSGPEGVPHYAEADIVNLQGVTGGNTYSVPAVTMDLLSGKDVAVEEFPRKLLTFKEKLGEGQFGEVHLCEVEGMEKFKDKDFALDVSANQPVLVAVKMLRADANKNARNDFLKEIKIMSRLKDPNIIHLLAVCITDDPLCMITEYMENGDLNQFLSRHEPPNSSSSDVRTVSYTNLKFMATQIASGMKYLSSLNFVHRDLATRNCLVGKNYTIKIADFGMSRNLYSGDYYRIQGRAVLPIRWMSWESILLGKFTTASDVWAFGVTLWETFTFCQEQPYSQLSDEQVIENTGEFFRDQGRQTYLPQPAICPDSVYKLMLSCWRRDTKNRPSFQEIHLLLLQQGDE
A digest of the protocol:
(§1)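 Compound at 5 um + kinase + fluor-labeled substrate, standardized mix; rxn stopped; electrophoretic separation of product/substrate on chip; activity = product vs substrate peak fluorescence. Bins A ≥95%, B 90-94%, C 80-89%.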

The target of assay [2] is T2, EPH-A8 (Homo sapiens, UniProt P29322).
T2 sequence (P29322 28-1005): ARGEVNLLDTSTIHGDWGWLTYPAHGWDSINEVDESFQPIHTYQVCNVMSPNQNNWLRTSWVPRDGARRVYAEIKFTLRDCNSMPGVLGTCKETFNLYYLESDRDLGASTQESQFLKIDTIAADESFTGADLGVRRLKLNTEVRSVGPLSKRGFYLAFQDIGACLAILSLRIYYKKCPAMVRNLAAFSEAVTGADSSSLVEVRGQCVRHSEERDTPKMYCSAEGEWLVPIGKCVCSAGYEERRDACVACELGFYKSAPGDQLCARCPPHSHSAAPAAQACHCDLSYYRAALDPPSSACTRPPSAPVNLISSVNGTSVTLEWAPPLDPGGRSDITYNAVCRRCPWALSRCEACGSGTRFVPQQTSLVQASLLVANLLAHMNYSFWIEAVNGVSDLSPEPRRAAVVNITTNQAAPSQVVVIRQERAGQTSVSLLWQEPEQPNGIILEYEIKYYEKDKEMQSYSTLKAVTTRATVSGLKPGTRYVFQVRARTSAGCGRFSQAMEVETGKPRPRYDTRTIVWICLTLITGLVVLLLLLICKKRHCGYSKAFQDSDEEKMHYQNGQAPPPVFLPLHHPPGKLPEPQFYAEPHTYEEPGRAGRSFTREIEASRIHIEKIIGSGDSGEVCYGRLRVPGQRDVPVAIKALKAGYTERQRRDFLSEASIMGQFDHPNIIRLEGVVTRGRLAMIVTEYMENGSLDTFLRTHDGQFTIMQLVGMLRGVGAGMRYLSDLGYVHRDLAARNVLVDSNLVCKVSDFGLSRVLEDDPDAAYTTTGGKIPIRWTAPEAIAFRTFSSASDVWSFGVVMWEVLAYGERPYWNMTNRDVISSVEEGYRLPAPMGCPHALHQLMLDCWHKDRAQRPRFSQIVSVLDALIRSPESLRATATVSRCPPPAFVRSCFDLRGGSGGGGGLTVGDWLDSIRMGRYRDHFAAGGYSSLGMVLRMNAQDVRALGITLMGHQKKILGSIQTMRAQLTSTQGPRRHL
A digest of the protocol: as §1

Assay [3] has as its target T3, MUSK (Homo sapiens, UniProt O15146).
T3 sequence (O15146 24-869): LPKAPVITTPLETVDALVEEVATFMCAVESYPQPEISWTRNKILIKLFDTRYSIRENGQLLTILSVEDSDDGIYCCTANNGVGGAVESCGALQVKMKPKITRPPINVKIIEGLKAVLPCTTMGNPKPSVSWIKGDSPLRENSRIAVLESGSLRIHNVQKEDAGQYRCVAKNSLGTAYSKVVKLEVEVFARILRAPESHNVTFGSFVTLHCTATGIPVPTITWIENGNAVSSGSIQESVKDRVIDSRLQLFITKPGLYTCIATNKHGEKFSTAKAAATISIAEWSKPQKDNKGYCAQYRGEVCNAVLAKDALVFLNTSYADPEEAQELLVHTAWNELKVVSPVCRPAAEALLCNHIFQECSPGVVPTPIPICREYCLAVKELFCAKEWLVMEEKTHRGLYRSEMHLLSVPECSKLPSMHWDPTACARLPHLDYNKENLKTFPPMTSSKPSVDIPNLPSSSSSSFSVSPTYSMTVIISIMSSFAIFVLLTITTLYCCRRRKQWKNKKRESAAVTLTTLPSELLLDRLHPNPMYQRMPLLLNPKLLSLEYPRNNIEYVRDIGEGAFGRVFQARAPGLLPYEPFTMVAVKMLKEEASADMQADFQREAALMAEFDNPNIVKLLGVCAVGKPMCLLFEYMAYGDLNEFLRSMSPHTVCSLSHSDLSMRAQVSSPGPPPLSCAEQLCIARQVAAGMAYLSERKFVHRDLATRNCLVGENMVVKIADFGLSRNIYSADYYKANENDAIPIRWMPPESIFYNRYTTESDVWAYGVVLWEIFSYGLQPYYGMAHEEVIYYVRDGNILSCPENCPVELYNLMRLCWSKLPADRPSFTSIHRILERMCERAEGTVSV
A digest of the protocol:
as §1

For assay [4], the target named is TIE2 (Homo sapiens, UniProt Q02763). An outline of the steps:
as §1

Assay [5] addresses TRKB (Homo sapiens, UniProt Q16620). An outline of the steps:
as §1

Sequence of TIE2 (Q02763 23-1124, species assumed): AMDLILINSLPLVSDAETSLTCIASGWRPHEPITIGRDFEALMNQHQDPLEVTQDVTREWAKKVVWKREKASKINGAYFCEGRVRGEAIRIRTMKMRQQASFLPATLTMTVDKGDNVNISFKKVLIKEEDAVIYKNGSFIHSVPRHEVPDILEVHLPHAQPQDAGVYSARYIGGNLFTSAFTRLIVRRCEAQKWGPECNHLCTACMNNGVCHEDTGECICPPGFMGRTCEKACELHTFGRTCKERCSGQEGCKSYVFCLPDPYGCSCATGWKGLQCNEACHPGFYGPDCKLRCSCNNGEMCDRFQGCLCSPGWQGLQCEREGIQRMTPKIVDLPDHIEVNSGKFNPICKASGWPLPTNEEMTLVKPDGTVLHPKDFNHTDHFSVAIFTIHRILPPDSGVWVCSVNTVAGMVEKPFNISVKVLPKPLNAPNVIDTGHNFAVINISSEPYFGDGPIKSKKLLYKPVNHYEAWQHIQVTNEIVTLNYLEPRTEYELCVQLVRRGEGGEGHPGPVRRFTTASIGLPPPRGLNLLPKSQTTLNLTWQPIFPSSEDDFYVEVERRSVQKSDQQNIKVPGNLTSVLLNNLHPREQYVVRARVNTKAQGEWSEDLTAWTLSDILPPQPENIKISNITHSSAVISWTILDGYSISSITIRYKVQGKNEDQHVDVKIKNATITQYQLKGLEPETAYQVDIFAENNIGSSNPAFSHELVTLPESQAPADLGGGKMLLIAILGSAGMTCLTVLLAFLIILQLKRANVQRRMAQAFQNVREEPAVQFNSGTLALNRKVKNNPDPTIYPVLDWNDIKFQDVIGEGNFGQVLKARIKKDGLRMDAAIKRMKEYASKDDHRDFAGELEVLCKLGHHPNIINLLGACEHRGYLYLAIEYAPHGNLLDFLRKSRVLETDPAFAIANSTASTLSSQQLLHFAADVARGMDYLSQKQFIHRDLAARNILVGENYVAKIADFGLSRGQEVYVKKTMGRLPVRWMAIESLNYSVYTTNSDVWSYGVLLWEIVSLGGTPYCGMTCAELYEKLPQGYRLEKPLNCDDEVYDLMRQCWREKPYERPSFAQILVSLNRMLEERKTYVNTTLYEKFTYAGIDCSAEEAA
Sequence of TRKB (Q16620 32-822, species assumed): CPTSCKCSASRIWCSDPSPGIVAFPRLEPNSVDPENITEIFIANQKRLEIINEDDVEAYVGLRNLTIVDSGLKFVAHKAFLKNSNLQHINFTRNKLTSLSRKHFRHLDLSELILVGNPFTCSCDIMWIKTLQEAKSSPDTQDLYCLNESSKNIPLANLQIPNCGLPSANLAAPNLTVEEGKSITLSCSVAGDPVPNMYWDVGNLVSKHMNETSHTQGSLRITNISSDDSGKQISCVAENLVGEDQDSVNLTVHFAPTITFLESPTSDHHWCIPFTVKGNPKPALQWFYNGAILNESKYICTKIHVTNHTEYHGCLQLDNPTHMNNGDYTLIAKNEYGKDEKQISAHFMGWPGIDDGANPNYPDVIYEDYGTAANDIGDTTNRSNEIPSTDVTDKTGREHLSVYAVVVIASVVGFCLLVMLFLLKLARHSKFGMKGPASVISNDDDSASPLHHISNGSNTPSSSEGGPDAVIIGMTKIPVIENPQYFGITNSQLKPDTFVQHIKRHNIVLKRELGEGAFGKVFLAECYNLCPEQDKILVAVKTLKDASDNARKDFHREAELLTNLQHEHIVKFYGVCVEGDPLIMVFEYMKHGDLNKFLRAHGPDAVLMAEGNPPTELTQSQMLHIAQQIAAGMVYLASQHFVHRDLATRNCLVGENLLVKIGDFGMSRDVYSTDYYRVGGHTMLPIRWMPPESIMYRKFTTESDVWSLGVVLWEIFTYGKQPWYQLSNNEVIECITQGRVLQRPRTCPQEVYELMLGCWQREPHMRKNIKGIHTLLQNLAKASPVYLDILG

One may read the inhibition as the relative decrease from the control value, in per cent. With `CSc1nc(C(=O)Nc2ccc(Oc3ccnc(C(=O)NCCN(C)C)c3)c(F)c2)c(-c2ccc(F)cc2)o1` [Compound 41], the inhibition at 5 µM is 50 to 79% in assay [1]; 50 to 79% in assay [2]; less than 50% in assay [3]; less than 50% in assay [4]; less than 50% in assay [5].

Regarding `CSc1nc(C(=O)Nc2ccc(Oc3ccnc(C(=O)NC4CCN(C)CC4)c3)c(F)c2)c(-c2ccc(F)cc2)o1` [Compound 42], the inhibition at 5 µM in assay [1] is 50 to 79%; in assay [2], less than 50%; in assay [3], less than 50%; in assay [4], less than 50%; in assay [5] it was less than 50%.

For the compound `COc1nc(C(=O)Nc2ccc(Oc3ccnc(C(=O)NCC(F)(F)F)c3)c(F)c2)c(-c2ccc(F)cc2)o1` [Compound 43], the inhibition at 5 µM in assay [1], in assay [2], in assay [3], in assay [4] and in assay [5] was less than 50% throughout.
